How the values were obtained:
Experiment in all cases: Kinase assay, binding constants (Kd), kinase-tagged T7 phage, qPCR
[1] = biological target: FGFR4 (Homo sapiens (Human), UniProt P22455)
Summary of the method: (§1)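 Using T7 phage lysates from BL21-derived E. coli, compounds at 0.9% final DMSO competed for kinase binding to ligand-bearing magnetic beads. After elution, qPCR measured remaining kinase, and Kds were fitted by non-linear least squares with the Hill slope fixed at −1.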

[2] = biological target: FGFR3 (Homo sapiens (Human), UniProt P22607)
Summary of the method: as §1

[3] = biological target: FGFR1 (Homo sapiens (Human), UniProt P11362)
Summary of the method: as §1

[4] = biological target: FGFR3 (V555M) (Homo sapiens (Human), UniProt P22607, V555M); details: V555M mutant
Summary of the method: as §1

[5] = biological target: FGFR2 (Homo sapiens (Human), UniProt P21802)
Summary of the method: as §1

Sequence of FGFR1 (P11362 22-822): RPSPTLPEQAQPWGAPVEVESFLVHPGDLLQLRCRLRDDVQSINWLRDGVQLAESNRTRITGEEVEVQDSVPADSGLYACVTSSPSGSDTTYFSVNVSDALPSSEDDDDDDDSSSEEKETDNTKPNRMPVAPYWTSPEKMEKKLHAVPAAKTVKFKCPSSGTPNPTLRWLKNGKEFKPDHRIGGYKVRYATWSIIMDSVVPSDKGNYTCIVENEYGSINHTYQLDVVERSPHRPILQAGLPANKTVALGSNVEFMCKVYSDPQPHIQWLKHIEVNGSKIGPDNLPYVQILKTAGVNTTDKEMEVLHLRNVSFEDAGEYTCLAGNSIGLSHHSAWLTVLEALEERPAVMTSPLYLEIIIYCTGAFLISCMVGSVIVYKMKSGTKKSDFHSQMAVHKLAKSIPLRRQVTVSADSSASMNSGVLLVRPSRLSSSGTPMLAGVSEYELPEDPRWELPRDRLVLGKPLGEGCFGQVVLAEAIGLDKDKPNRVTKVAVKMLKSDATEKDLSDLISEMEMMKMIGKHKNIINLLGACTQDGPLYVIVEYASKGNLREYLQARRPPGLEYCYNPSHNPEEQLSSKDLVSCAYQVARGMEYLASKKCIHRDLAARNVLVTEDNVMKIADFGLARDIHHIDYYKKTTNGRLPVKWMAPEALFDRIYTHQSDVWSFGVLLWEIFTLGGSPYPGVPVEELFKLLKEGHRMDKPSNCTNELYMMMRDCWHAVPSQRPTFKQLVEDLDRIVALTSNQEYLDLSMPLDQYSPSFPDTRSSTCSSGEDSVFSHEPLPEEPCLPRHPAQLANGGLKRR
Sequence of FGFR3 (V555M) (P22607 23-806 V555M): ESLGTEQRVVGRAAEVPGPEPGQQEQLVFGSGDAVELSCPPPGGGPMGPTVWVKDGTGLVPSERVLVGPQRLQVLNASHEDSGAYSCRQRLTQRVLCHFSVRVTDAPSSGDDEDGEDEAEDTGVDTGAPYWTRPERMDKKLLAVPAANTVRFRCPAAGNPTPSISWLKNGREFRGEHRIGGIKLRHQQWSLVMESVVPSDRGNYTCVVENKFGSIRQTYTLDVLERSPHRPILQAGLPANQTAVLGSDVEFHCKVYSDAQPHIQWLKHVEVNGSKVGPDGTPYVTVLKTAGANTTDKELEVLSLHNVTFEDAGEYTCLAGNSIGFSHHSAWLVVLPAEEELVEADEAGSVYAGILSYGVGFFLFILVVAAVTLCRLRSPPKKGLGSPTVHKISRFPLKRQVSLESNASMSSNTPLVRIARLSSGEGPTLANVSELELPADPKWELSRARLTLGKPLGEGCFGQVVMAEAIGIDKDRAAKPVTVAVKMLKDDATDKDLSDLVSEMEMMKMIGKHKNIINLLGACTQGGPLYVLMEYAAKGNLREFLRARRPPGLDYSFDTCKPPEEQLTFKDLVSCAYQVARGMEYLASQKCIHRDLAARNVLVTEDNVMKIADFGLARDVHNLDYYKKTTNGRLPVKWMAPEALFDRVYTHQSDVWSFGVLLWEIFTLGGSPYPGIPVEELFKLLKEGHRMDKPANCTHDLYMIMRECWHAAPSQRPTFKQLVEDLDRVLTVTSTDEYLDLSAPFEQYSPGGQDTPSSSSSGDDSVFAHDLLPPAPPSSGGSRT
Sequence of FGFR3 (P22607 23-806): as the sequence (P22607 23-806 V555M) above, with M533V counted along it
Sequence of FGFR2 (P21802 22-821): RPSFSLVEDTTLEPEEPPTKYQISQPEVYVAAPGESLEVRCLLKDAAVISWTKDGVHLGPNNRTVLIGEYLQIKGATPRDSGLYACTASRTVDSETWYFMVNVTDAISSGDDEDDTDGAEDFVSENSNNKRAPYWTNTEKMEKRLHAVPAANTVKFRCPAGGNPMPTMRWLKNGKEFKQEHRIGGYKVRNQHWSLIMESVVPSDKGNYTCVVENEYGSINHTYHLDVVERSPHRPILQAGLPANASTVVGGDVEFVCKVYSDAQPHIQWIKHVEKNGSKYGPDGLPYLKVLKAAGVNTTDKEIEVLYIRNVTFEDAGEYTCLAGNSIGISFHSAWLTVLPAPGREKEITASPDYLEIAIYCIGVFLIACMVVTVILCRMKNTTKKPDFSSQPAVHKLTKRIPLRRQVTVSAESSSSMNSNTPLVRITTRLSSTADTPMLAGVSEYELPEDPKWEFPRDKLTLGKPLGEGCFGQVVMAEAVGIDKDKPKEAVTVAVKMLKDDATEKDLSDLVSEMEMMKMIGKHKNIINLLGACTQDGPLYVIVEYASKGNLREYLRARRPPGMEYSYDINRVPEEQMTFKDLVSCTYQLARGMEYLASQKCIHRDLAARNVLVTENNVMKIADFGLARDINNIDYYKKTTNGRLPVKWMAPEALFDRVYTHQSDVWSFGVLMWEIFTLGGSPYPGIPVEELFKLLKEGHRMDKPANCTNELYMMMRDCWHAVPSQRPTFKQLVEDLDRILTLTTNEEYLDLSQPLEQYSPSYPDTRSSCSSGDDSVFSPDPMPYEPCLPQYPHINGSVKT
Sequence of FGFR4 (P22455 22-802): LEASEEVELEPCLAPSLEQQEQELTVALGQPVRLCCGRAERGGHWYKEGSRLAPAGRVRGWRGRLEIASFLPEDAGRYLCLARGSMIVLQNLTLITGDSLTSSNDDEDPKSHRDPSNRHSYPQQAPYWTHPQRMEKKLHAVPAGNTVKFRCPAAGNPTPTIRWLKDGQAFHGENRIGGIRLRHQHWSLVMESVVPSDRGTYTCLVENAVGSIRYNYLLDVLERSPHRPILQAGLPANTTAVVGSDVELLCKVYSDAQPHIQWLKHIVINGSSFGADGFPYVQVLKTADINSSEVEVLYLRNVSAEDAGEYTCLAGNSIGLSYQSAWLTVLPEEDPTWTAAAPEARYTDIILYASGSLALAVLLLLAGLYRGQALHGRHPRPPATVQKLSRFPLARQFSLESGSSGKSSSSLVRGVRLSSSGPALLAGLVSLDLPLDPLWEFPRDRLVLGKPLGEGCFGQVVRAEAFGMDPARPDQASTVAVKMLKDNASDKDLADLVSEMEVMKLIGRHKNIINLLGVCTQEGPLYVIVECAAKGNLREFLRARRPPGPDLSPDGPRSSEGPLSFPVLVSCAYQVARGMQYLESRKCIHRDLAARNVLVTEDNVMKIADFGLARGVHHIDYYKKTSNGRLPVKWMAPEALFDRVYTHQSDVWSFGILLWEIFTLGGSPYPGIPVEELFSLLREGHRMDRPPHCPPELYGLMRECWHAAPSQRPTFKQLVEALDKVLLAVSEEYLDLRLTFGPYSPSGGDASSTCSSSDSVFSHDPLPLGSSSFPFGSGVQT

Kd [1] | Kd [2] | Kd [3] | Kd [4] | Kd [5] | Compound
1 to 20 nM | 100 to 300 nM | > 300 nM | 20 to 100 nM | > 300 nM | Cc1ncc(Cl)c([C@@H](C)Oc2ccc3[nH]nc(-c4cnc(N5CC(O)C5)c(C#N)c4)c3c2)c1Cl [Example 308, 5-[5-[(1R)-1-(3,5-dichloro-2-methyl-4-pyridyl)ethoxy]-1H-indazol-3-yl]-2-(3-hydroxyazetidin-1-yl)pyridine-3-carbonitrile]
1 to 20 nM | 100 to 300 nM | > 300 nM | 20 to 100 nM | > 300 nM | C[C@@H](Oc1ccc2[nH]nc(-c3cnc(N4CCC4)c(C#N)c3)c2c1)c1c(Cl)cncc1Cl [Example 309, 2-(azetidin-1-yl)-5-[5-[(1R)-1-(3,5-dichloro-4-pyridyl)ethoxy]-1H-indazol-3-yl]pyridine-3-carbonitrile]
1 to 20 nM | 1 to 20 nM | 1 to 20 nM | 1 to 20 nM | 1 to 20 nM | COc1cc2[nH]nc(-c3ccc(N4CCC4)nc3)c2cc1O[C@H](C)c1c(C)cnnc1C [Example 310, (R)-3-(6-(azetidin-1-yl)pyridin-3-yl)-5-(1-(3,5-dimethylpyridazin-4-yl)ethoxy)-6-methoxy-1H-indazole]
1 to 20 nM | 20 to 100 nM | 20 to 100 nM | 1 to 20 nM | 20 to 100 nM | COc1cc2[nH]nc(-c3cnc(N4CC[C@H](O)C4)c(C#N)c3)c2cc1O[C@H](C)c1c(C)cnnc1C [Example 311, 5-(5-((R)-1-(3,5-dimethylpyridazin-4-yl)ethoxy)-6-methoxy-1H-indazol-3-yl)-2-((S)-3-hydroxypyrrolidin-1-yl)nicotinonitrile]
1 to 20 nM | 20 to 100 nM | 100 to 300 nM | 1 to 20 nM | 20 to 100 nM | Cc1cnnc(C)c1[C@@H](C)Oc1ccc2[nH]nc(-c3cnc(N4CC[C@@H](O)C4)c(C#N)c3)c2c1 [Example 313, 5-(5-((R)-1-(3,5-dimethylpyridazin-4-yl)ethoxy)-1H-indazol-3-yl)-2-((R)-3-hydroxypyrrolidin-1-yl)nicotinonitrile]
1 to 20 nM | 1 to 20 nM | 1 to 20 nM | 1 to 20 nM | 1 to 20 nM | COc1cc2[nH]nc(-c3ccc(N4CCCC4)nc3)c2cc1O[C@H](C)c1c(C)cnnc1C [Example 315, (R)-5-(1-(3,5-dimethylpyridazin-4-yl)ethoxy)-6-methoxy-3-(6-(pyrrolidin-1-yl)pyridin-3-yl)-1H-indazole]
1 to 20 nM | 1 to 20 nM | 20 to 100 nM | 1 to 20 nM | 20 to 100 nM | COc1cc2[nH]nc(-c3cnc(N4CC[C@H](C(C)(C)O)C4)c(C#N)c3)c2cc1O[C@H](C)c1c(C)cnnc1C [Example 316, 5-(5-((R)-1-(3,5-dimethylpyridazin-4-yl)ethoxy)-6-methoxy-1H-indazol-3-yl)-2-((S)-3-(2-hydroxypropan-2-yl)pyrrolidin-1-yl)nicotinonitrile]
1 to 20 nM | 20 to 100 nM | 100 to 300 nM | 1 to 20 nM | 100 to 300 nM | Cc1cnnc(C)c1[C@@H](C)Oc1ccc2[nH]nc(-c3cnc(N4CC(O)C4)c(C#N)c3)c2c1 [Example 318, (R)-5-(5-(1-(3,5-dimethylpyridazin-4-yl)ethoxy)-1H-indazol-3-yl)-2-(3-hydroxyazetidin-1-yl)nicotinonitrile]
1 to 20 nM | 1 to 20 nM | 20 to 100 nM | 1 to 20 nM | 20 to 100 nM | COc1cc2[nH]nc(-c3cnc(N4CC[C@@H](O)C4)c(C#N)c3)c2cc1O[C@H](C)c1c(C)cnnc1C [Example 319, 5-(5-((R)-1-(3,5-dimethylpyridazin-4-yl)ethoxy)-6-methoxy-1H-indazol-3-yl)-2-((R)-3-hydroxypyrrolidin-1-yl)nicotinonitrile]
1 to 20 nM | 20 to 100 nM | 20 to 100 nM | 1 to 20 nM | 20 to 100 nM | COc1cc2[nH]nc(-c3cnc(N4CC(O)C4)c(C#N)c3)c2cc1O[C@H](C)c1c(C)cnnc1C [Example 320, (R)-5-(5-(1-(3,5-dimethylpyridazin-4-yl)ethoxy)-6-methoxy-1H-indazol-3-yl)-2-(3-hydroxyazetidin-1-yl)nicotinonitrile]
1 to 20 nM | 1 to 20 nM | 20 to 100 nM | 1 to 20 nM | 1 to 20 nM | COc1cc2[nH]nc(-c3cnc(N4CC[C@@H](C(C)(C)O)C4)c(C#N)c3)c2cc1O[C@H](C)c1c(C)cnnc1C [Example 321, 5-(5-((R)-1-(3,5-dimethylpyridazin-4-yl)ethoxy)-6-methoxy-1H-indazol-3-yl)-2-((R)-3-(2-hydroxypropan-2-yl)pyrrolidin-1-yl)nicotinonitrile]
1 to 20 nM | 20 to 100 nM | 100 to 300 nM | 1 to 20 nM | 20 to 100 nM | COc1cc2[nH]nc(-c3cnc(N4CCC4)c(C#N)c3)c2cc1O[C@H](C)c1c(C)cnnc1C [Example 322, (R)-2-(azetidin-1-yl)-5-(5-(1-(3,5-dimethylpyridazin-4-yl)ethoxy)-6-methoxy-1H-indazol-3-yl)nicotinonitrile]
1 to 20 nM | 20 to 100 nM | 20 to 100 nM | 1 to 20 nM | 20 to 100 nM | COc1cc2[nH]nc(-c3cnc(N4CC5(COC5)C4)c(C#N)c3)c2cc1O[C@H](C)c1c(C)cnnc1C [Example 324, (R)-5-(5-(1-(3,5-dimethylpyridazin-4-yl)ethoxy)-6-methoxy-1H-indazol-3-yl)-2-(2-oxa-6-azaspiro[3.3]heptan-6-yl)nicotinonitrile]
1 to 20 nM | 1 to 20 nM | 20 to 100 nM | 1 to 20 nM | 1 to 20 nM | Cc1cnnc(C)c1[C@@H](C)Oc1ccc2[nH]nc(-c3cnc(N4CCN5C(=O)NCC5C4)c(C#N)c3)c2c1 (stereo partly drawn) [Example 325, 5-(5-((R)-1-(3,5-dimethylpyridazin-4-yl)ethoxy)-1H-indazol-3-yl)-2-(3-oxohexahydroimidazo[1,5-a]pyrazin-7(1H)-yl)nicotinonitrile]
1 to 20 nM | 1 to 20 nM | 20 to 100 nM | 1 to 20 nM | 20 to 100 nM | COc1cc2[nH]nc(-c3cnc(N4CC(O)C4)c(C#N)c3)c2cc1O[C@H](C)c1c(Cl)cncc1Cl [Example 326, 5-[5-[(1R)-1-(3,5-dichloro-4-pyridyl)ethoxy]-6-methoxy-1H-indazol-3-yl]-2-(3-hydroxyazetidin-1-yl)pyridine-3-carbonitrile]
1 to 20 nM | 1 to 20 nM | 1 to 20 nM | 1 to 20 nM | 1 to 20 nM | COc1cc2[nH]nc(-c3cnc(N4CC[C@H](O)C4)c(C#N)c3)c2cc1O[C@H](C)c1c(Cl)cncc1Cl [Example 327, 5-[5-[(1R)-1-(3,5-dichloro-4-pyridyl)ethoxy]-6-methoxy-1H-indazol-3-yl]-2-[(3S)-3-hydroxypyrrolidin-1-yl]pyridine-3-carbonitrile]
1 to 20 nM | 100 to 300 nM | 100 to 300 nM | 20 to 100 nM | 100 to 300 nM | COc1cc(-c2n[nH]c3ccc(O[C@H](C)c4c(C)cnnc4C)cc23)cnc1N1CCN2C(=O)NCC2C1 (stereo partly drawn) [Example 328, 7-(5-(5-((R)-1-(3,5-dimethylpyridazin-4-yl)ethoxy)-1H-indazol-3-yl)-3-methoxypyridin-2-yl)hexahydroimidazo[1,5-a]pyrazin-3(2H)-one]
1 to 20 nM | 20 to 100 nM | 100 to 300 nM | 1 to 20 nM | > 300 nM | C[C@@H](Oc1ccc2[nH]nc(-c3cnc(N4CC5(CN(CC(F)(F)F)C5)C4)c(C#N)c3)c2c1)c1c(Cl)cncc1Cl [Example 329, (R)-5-(5-(1-(3,5-dichloropyridin-4-yl)ethoxy)-1H-indazol-3-yl)-2-(6-(2,2,2-trifluoroethyl)-2,6-diazaspiro[3.3]heptan-2-yl)nicotinonitrile]

Compound | Kd [1] | Kd [2] | Kd [3] | Kd [4] | Kd [5]
Cc1cnnc(C)c1[C@@H](C)Oc1ccc2[nH]nc(-c3cnc(N4CC5CC(C4)N5CC(C)(C)O)c(C#N)c3)c2c1 [Example 312, 5-(5-((R)-1-(3,5-dimethylpyridazin-4-yl)ethoxy)-1H-indazol-3-yl)-2-(6-(2-hydroxy-2-methylpropyl)-3,6-diazabicyclo[3.1.1]heptan-3-yl)nicotinonitrile] | 1 to 20 nM | 1 to 20 nM | 1 to 20 nM | 1 to 20 nM | 1 to 20 nM
COc1cc2[nH]nc(-c3ccc(N4CC5CC(C4)N5)nc3)c2cc1O[C@H](C)c1c(C)cnnc1C [Example 314, 3-(5-(5-((R)-1-(3,5-dimethylpyridazin-4-yl)ethoxy)-6-methoxy-1H-indazol-3-yl)pyridin-2-yl)-3,6-diazabicyclo[3.1.1]heptane] | 1 to 20 nM | 1 to 20 nM | 1 to 20 nM | 1 to 20 nM | 1 to 20 nM
COc1cc2[nH]nc(-c3cnc(N4CC5CC(C4)N5)c(C)c3)c2cc1O[C@H](C)c1c(C)cnnc1C [Example 317, 3-(5-(5-((R)-1-(3,5-dimethylpyridazin-4-yl)ethoxy)-6-methoxy-1H-indazol-3-yl)-3-methylpyridin-2-yl)-3,6-diazabicyclo[3.1.1]heptane] | 1 to 20 nM | 1 to 20 nM | 1 to 20 nM | 1 to 20 nM | 1 to 20 nM
COc1cc(-c2n[nH]c3ccc(O[C@H](C)c4c(C)cnnc4C)cc23)cnc1N1CC2CC(C1)N2CC(C)(C)O [Example 323, 1-(3-(5-(5-((R)-1-(3,5-dimethylpyridazin-4-yl)ethoxy)-1H-indazol-3-yl)-3-methoxypyridin-2-yl)-3,6-diazabicyclo[3.1.1]heptan-6-yl)-2-methylpropan-2-ol] | 1 to 20 nM | > 300 nM | > 300 nM | 20 to 100 nM | > 300 nM
